Experimental data taken from patent publication US10919841B2, “Monoamine reuptake inhibitors” (Research Triangle Institute, priority 2009, dated 2021).
pIC50, pKi: −log10 of the molar value. Like-named read-outs stand apart in the source and are kept apart here. Marks after values point to notes of the source that are not given here.

Assays:
(h)DAT [1] = target: T1, (h)DAT (Homo sapiens, UniProt Q01959); assay: block of [3H]dopamine reuptake in HEK-(h)DAT cells; type: cell-based
T1 construct: expressed in transfected cells

mice [2] = assay: locomotor activity, 8-h time course protocol; type: in vivo; conditions: for ED50 / Emax: Mus musculus; for ED50: read-out: Locomotor Activity 8-Hour ED50; for Emax: read-out: Locomotor Activity 8-Hour % Peak Cocaine, percent of cocaine's maximal effect, 30 min period of maximum stimulation; for Locomotor Activity 8-Hour Time, min Period, length: duration of locomotor activity; for Locomotor Activity 8-Hour Time, min Period, max: time period of maximum effect; for locomotor stimulant activity across the 1-h and 8-h protocols, in words: 1-h and 8-h tests compared
rats [3] = assay: cocaine discrimination (2-lever operant), i.p. administration; conditions: for responders at 5 mg/kg / responders at 10 mg/kg / responders at 25 mg/kg / responders at 50 mg/kg / ED50 / responders at 100 mg/kg: Rattus norvegicus, ip; for responders at 5 mg/kg / responders at 10 mg/kg / responders at 25 mg/kg / responders at 50 mg/kg / responders at 100 mg/kg: read-out: % cocaine lever responding; for ED50: read-out: Full Generalization ED50
rats [4] = assay: cocaine discrimination time-course study, oral administration; conditions: for ED50: Rattus norvegicus, po, 0.75 h; for generalization to cocaine: p.o., 50 mg/kg
(h)DAT [5] = target: T1, (h)DAT; assay: competition binding with [125I]RTI-55 at (h)DAT stably expressed in HEK293 cells; conditions: mean ± standard error of three independent experiments
mice [6] = assay: locomotor activity, 1-h observation protocol; type: in vivo; conditions: for Emax / ED50: Mus musculus; for Emax: 0.5 h, read-out: Locomotor Activity 1-Hour % Peak Cocaine; for ED50 / Locomotor Activity 1-Hour ED50: dose to produce 50% of the compound's maximal effect, 1-h
(h)NET [7] = target: T2, (h)NET (Homo sapiens, UniProt P23975); assay: block of [3H]norepinephrine reuptake in HEK-(h)NET cells; conditions: read-out: Uptake, IC50 [3H]NE; mean ± standard error of three independent experiments
(h)NET [8] = target: T2, (h)NET; assay: competition binding with [125I]RTI-55 at (h)NET stably expressed in HEK293 cells; conditions: read-out: Binding, Ki NET; mean ± standard error of three independent experiments
[9] = mean ± standard error of three independent experiments, read-out: Uptake, IC50 [3H]DA
[10] = dose to produce 50% of the compound's maximal effect, 8-h
[11] = [3H]DA, read-out: IC50 for DA uptake inhibition

T2 sequence (P23975 whole entry): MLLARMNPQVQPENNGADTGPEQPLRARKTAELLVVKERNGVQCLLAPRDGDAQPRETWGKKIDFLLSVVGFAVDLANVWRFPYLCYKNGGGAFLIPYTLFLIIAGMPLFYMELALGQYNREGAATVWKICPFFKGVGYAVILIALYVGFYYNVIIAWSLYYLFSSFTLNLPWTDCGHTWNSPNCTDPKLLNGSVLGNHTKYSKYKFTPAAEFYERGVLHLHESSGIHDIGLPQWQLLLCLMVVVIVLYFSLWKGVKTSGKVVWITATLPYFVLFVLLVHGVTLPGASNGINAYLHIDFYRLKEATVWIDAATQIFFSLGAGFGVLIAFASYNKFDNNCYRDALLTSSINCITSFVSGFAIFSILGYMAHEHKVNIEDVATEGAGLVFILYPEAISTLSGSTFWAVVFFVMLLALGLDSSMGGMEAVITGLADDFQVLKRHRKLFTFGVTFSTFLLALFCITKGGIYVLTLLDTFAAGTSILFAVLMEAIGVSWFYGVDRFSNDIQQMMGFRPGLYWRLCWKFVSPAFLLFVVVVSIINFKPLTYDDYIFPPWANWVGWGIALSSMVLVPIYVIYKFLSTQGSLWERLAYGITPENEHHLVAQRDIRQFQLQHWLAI
T1 sequence (Q01959 whole entry): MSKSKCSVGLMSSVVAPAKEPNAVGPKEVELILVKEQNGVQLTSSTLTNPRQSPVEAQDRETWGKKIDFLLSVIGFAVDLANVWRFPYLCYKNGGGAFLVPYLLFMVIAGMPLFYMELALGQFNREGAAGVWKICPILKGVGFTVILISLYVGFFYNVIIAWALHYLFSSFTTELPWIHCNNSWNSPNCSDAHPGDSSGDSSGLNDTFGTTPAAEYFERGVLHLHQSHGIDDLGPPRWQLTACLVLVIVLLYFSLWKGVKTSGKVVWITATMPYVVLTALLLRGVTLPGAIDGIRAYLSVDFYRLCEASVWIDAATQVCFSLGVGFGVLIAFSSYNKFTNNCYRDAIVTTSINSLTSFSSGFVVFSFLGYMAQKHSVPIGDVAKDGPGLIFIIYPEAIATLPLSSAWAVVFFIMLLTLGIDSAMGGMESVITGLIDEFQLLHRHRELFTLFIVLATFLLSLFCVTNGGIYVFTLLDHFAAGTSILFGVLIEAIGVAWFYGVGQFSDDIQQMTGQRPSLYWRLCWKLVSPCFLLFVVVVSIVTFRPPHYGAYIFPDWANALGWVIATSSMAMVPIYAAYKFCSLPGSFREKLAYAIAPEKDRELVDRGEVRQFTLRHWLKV

Compound	Emax (mice [2])	Locomotor Activity 8-Hour Time, min Period, length (mice [2])	Locomotor Activity 8-Hour Time, min Period, max (mice [2])	responders at 5 mg/kg (rats [3])	responders at 10 mg/kg (rats [3])	responders at 25 mg/kg (rats [3])	ED50 (rats [4])	pKi ((h)DAT [5])	pIC50 ((h)DAT [1]; [9])	Emax (mice [6])	ED50 (mice [6])	locomotor stimulant activity across the 1-h and 8-h protocols, in words (mice [2])	ED50 (mice [2]; [10])	responders at 50 mg/kg (rats [3])	ED50 (rats [3])	further results
CC(NC(C)(C)C)C(=O)c1cccc(Cl)c1 (racemic) [Compound 2a, (±)-2-tert-butylamino-3′-chloropropiophenone, reference compound]	> 84%	130 to 270 min	0 to 30 min	0%	67%	66%	23.2 mg/kg									times less potent inhibitor of DA uptake than cocaine ((h)DAT [1]; relative to cocaine): 3.5 times; ED50 (mice [2]; 8 h): 6.5 mg/kg; generalization to the cocaine cue, in words (rats [3]; i.p.): substituted only partially; cocaine-appropriate responding (rats [3]; i.p., 10 mg/kg): 67%; response rate, in words (rats [3]; i.p., dose range given in the value): increased relative to vehicle control following 5-25 mg/kg; ED50 (rats [4]; read-out: ED50 for drug-appropriate responding): 23.2 mg/kg; generalization to cocaine (rats [4]; 45 min): full generalization; generalization to cocaine (rats [4]; 90 min): partial generalization
CC(NC(C)(C)C)C(=O)c1cccc(F)c1 (centres unmarked) [Compound 2c, 2-(tert-Butylamino)-3′-fluoropropiophenone]	90%	150 min	0 to 30 min	1%	0%	50%	27.1 mg/kg	5.35	5.84	84%	16.1 mg/kg	strong stimulants in both studies	16.6 mg/kg	10%	10.8 mg/kg	
CC(C(=O)c1cccc(Cl)c1)N(C)C(C)(C)C (centres unmarked) [Compound 2cc, 2-(N-Methyl-N-tert-butylamino)-3′-chloropropiophenone]	67%	200 to 340 min	80 to 110 min	0%	49%	50%		5.19	5.69	78%	14.9 mg/kg	weak stimulants in both tests	11.2 mg/kg			
CC(NC(C)(C)C)C(=O)c1cccc(Br)c1 (centres unmarked) [Compound 2d, 2-(N-tert-Butylamino)-3′-bromopropiophenone]	57%	120 min	0 to 30 min	1%	27%	83%	52.4 mg/kg	5.38		72%	10.6 mg/kg	weak stimulants in both tests	12.9 mg/kg		11.4 mg/kg	pIC50 ((h)DAT [1]; [11]): 6.02; pIC50 ((h)NET [7]): 5.19
Cc1cccc(C(=O)C(C)NC(C)(C)C)c1 (centres unmarked) [Compound 2e, 2-(N-tert-Butylamino)-3′-methylpropiophenone]										76%	31 mg/kg					
CCN(CC)C(C)C(=O)c1cccc(Cl)c1 (centres unmarked) [Compound 2ee, 2-(N,N-Diethylamino)-3′-chloropropiophenone]	90%	130 to 240 min	20 to 50 min	1%	66%	82%		5.65	5.76	55%	16.6 mg/kg	moderate activity in the 1-h test with increased activity in the time-course study	20 mg/kg		5.88 mg/kg	pIC50 ((h)NET [7]): 5.34; pKi ((h)NET [8]): 5.35
CC(NC(C)(C)C)C(=O)c1ccc(Cl)cc1 (centres unmarked) [Compound 2f, 2-(N-tert-Butylamino)-4′-chloropropiophenone]			180 to 210 min	0%	33%	17%		5.66	5.63					0%		Locomotor Activity 1-Hour ED50 (mice [6]): NE^f; responders at 100 mg/kg (rats [3]): 34%
Cc1ccc(C(=O)C(C)NC(C)(C)C)cc1 (centres unmarked) [Compound 2h, 2-(N-tert-Butylamino)-4′-methylpropiophenone]	52%	60 to 140 min	30 to 60 min	0%	0%	17%				65%	8.77 mg/kg	weak stimulants in both tests		67%	36.7 mg/kg	ED50 (mice [2]; 8 h): 4.4 mg/kg; responders at 100 mg/kg (rats [3]): 10%
CC(NC(C)(C)C)C(=O)c1ccc(F)c(F)c1 (centres unmarked) [Compound 2i, 2-tert-Butylamino-3′,4′-difluoropropiophenone]					2%	17%				58%	54.6 mg/kg			47%		
CC(NC(C)(C)C)C(=O)c1cc(F)cc(F)c1 (centres unmarked) [Compound 2m, 2-(tert-Butylamino)-3′,5′-difluoropropiophenone]	95%	280 min	0 to 30 min		17%	50%	43.6 mg/kg	5.25	5.25	93%	39.7 mg/kg	strong stimulants in both studies	33.7 mg/kg	83%	17.9 mg/kg	
CC(NC(C)(C)C)C(=O)c1cc(Cl)cc(Cl)c1 (centres unmarked) [Compound 2n, 2-(tert-Butylamino)-3′,5′-dichloropropiophenone]																Locomotor Activity 1-Hour ED50 (mice [6]): NE^f
CC(C)NC(C)C(=O)c1cccc(Cl)c1 (centres unmarked) [Compound 2w, 2-(N-Isopropylamino)-3′-chloropropiophenone]	65%	50 to 160 min	20 to 50 min					5.40		84%		activity similar to cocaine in the 1-h protocol but weakened significantly in the 8-h time-course study				pIC50 ((h)DAT [1]; [11]): 5.70; times less potent than bupropion as DA uptake inhibitor ((h)DAT [1]; relative to bupropion): 2 times; ED50 (mice [2]; 8 h): 7.4 mg/kg
COC(=O)[C@H]1[C@@H](OC(=O)c2ccccc2)C[C@@H]2CC[C@H]1N2C [cocaine, reference compound]	100%	40 to 100 min	0 to 30 min							100%	8.5 to 11 mg/kg					Locomotor Activity 1-Hour ED50 (mice [6]): 8.5-11^e mg/kg
